What was measured:
GCL1 cells = assay: SYTOX cell death assay in GCL1 cells treated with antimycin A (chemical ischemia); type: cell-based, rat hepatoma cells (fao) / human fibroblasts (W138) hybrid; conditions: for reduction in cell death: control 82.9%
Excerpt: At greater than 80% confluence, more than 80% of the cells participate in forming one or more phaselucent, spherical structures that are located between cells, termed bile canicular-like spaces. In contrast to the majority of cell lines maintained in culture which are fermentative, GCL1 cells, when at their maximal density and polarity, are highly oxidative (i.e., they can be readily killed by inhibitors of oxidative phosphorylation or electron transport uncouplers). […] These cells are amenable to use in high throughput screening (HTS) technology.
The cells, with or without AA, are incubated at 37° C. in a 5% CO2 humidified incubator for 1 to 5 hours. […] The concentration of agents used for screening will be dependent upon the agents. Certain control groups contain 100 μl of HBSS only.
(§1) SYTOX Green nucleic acid stain is a high-affinity nucleic acid stain that easily penetrates cells with a compromised plasma membrane but will not cross the membrane of live cells. The nucleic acids of dead cells fluoresce bright green at 524 nm when excited with the 488 nm spectral source or with any other 450-500 nm source. […] In the cell viability assay chemical ischemia is created in cells and then cells are incubated with the SYTOX dye. The compound antimycin is used to simulate ischemia at the same time as stimulating the cells with forskolin. […] The assay is performed on cells grown in 96-well format allowing high throughput screening of compounds.
Aliquot at 100 μl. This 10 mM stock is then diluted to 1 mM with DMSO and aliquoted at 25 μL. Both the 10 mM and the 1 mM are stored at −20° C. until use. […] Aliquot at 100 μl and store at −20° C. until use. iv.) HBSS-SYTOX-FORSKOLIN-ANTIMYCIN (H-S-F-A) solution: H-S-F-A solution is made up fresh prior to each assay in sterile 175 ml or 225 ml Falcon bottles. […]
Cells are grown in 96-well black plates (with or without clear bottoms) at a density of 1000 cells per well for 24 hours. The necessary number of 96-well plates containing the specific cell type are obtained and placed in the laminar flow safety cabinet. A sterile microtiter basin is filled with the appropriate volume of pre-warmed 1×HBSS. Using aseptic technique and an 8-channel aspirator, the media is carefully removed from the cells and replaced with 200 μl of 1×HBSS. This is done as quickly as possible to prevent the cells drying out. The plates are then placed in the humidified 37° C. incubators of the Biomek 2000 Side Loader. Four plates are washed at a time so as to minimize the time that the cells are sitting in 1×HBSS prior to addition of the H-S-A-compound test solution.
(§2) Compound(s) are mixed with the 1 μM SYTOX working solution and added to the washed cell culture wells. Fluorescence is measured at designated time points (488 nm excitation and 530 nm emission). All of the sample readings subtract the background readings, which is cell-free wells only containing HBSS buffer with SYTOX green dye. The data is compared to non-treated cells (control) and is expressed as mean±S.D. from 4 culture wells. SYTOX Green fluorescence units obtained from each group are corrected for basal fluorescence (cell-free wells with only HBSS and fluorescence reagent). Data are represented as mean±SD. A paired t-test is performed comparing treated groups (Toxin+Agent) with non-treated groups (Toxin only) after subtracting the control groups (HBSS only) for each data set. Comparisons among groups are statistically evaluated by two-tailed t-test (Graphpad Prism Software, version 2.0). Differences are considered significant at P<0.05.
Hesperetin, diosmin, luteolin and quercetin were tested individually for their ability to counteract disruptions of normal energy metabolism. Flavonoids were commercially obtained, generally from Sigma Chemical Co., St. Louis, Mo., and/or Aldrich Chemical Co., Milwaukee, Wis.

[1] = tested on: Oxidatively competent cells; assay: SYTOX cell death assay in oxidatively competent cells treated with antimycin A; type: cell-based; conditions: for cell death when tested individually: highest concentration tested
Experimental: Oxidatively competent cells are prepared as described in Example 1. and Example 2.A and are seeded onto 96-well plates at 1×10^3/well or 2.5×10^3/well as passage 15. The cells are grown in DMEM with 10% FBS and 1.5 g/L sodium bicarbonate for 24 or 48 hours to reach 85% confluence. The cells are washed once with HBSS and then 100 μl of HBSS containing different concentration of AA (Sigma, Cat #A 8674) is added to the cells. AA is dissolved in DMSO to make a stock solution of 50 mM, then diluted with HBSS to 25, 12.5, 6.25, 3.125, and 1.56 μM for dose-response curves. The cells, with or without AA, are incubated at 37° C. in a 5% CO2 humidified incubator for 1 to 5 hours. The concentration of AA is chosen to induce 75% or 100% cell death as a screening dose to test the effect of agents to protect against AA- induced cell toxicity. The concentration of agents used for screening will be dependent upon the agents. Certain control groups contain 100 μl of HBSS only.
as §1, §2
Oxidatively competent cells were treated simultaneously with hesperetin, chrysin and 100 nM antimycin A2.C. The cells were treated with various low concentrations of hesperetin and various concentrations of chrysin (Sigma Chemical Co., cat. #C3018). Hesperetin, chrysin and antimycin A were mixed together before treating the cells. Cell viability was measured at time points up to 5 hours using SYTOX, as described in Example 2.F.
In experiments carried out in support of the invention, various concentrations of diosmin and alpha-tocopherol were tested for synergistic ability to ameliorate disruption of energy metabolism secondary to stress. Oxidatively competent cells were treated simultaneously with diosmin, alpha-tocopherol and antimycin A2.C. The cells were treated with various low concentrations of diosmin (Sigma Chemical Co., cat. #D3525) and various low concentrations of (+/−) alpha-tocopherol. Diosmin, alpha-tocopherol and antimycin were mixed together before treating cells. Cell viability was measured 4 hours after treatment using SYTOX. […] Likewise, the combination of disomin (11-100 μM) with 1.1 μg/ml (+/−) alpha tocopherol was synergistic. […] Diosmin alone provided no protection at a concentration of 100 μM. […] A combination of 100 μM diosmin and 11 μg/ml (+/−) alpha tocopherol was also synergistic. […]

[2] = cited from earlier work; for abnormalities observed for a week: administered orally to mice at 100 mg/kg (U.S. Pat. No. 5,650,433)
[3] = flavonoid 25 μM, antimycin A 100 nM, 4 hours
[4] = flavonoid 50 μM, antimycin A 100 nM, 4 hours
[5] = flavonoid 100 μM, antimycin A 100 nM, 4 hours
[6] = flavonoid 200 μM, antimycin A 100 nM, 4 hours
[7] = flavonoid 400 μM, antimycin A 100 nM, 4 hours

Which protection (GCL1 cells; 100 μM glycine alone, 4 hours, control cell death 82.1%) does the source give for `NCC(=O)O` [glycine, aminoacetic acid] here?
The protection was 40.8%.

What does the source list for `Cc1c(C)c2c(c(C)c1O)CCC(C)(CCCC(C)CCCC(C)CCCC(C)C)O2` (racemic) [(+/−) alpha-tocopherol, 2,5,7,8-tetramethyl-2-(4′,8′,12′-trimethyltridecyl)-6-chromanol]?
protection ([1]; 10 μg/ml (+/−) alpha-tocopherol by itself): about 15%; cell death when tested individually [1]: over half of the cells died

With `O=c1cc(-c2ccccc2)oc2cc(O)cc(O)c12` [chrysin, 5,7-dihydroxy-2-phenyl-4H-1-benzopyran-4-one] as the compound, how does the Cell Death ([1]; 60 μM chrysin alone, control 72.9%) read?
The Cell Death was 50.1%.

With `O=C(CO)[C@H](O)[C@H](O)CO` [ribulose] as the compound, how does the “reduction in cell death” value (GCL1 cells; 1.25 mM ribulose by itself, 4 hours) read?
The value was 4.4%.

And the “reduction in cell death” value (GCL1 cells; 10 mM ribulose alone, 4 hours)?
Its value is 26.5%.

For `O=c1c(-c2ccc(O)cc2)coc2cc(O)ccc12` [daidzein, 7-hydroxy-3-(4-hydroxyphenyl)-4H-1-benzopyran-4-one], which “cell death when tested individually” value [1] is on record?
Its value is “over half of the cells died”.

Which “protective effect” value (GCL1 cells; concentrations less than 400 μM) does the source give for `COc1ccc(-c2cc(=O)c3c(O)cc(O[C@@H]4O[C@H](CO[C@@H]5O[C@@H](C)[C@H](O)[C@@H](O)[C@H]5O)[C@@H](O)[C@H](O)[C@H]4O)cc3o2)cc1O` [Diosmin, reference compound] here?
The value was “ineffective”.

What about the “Cell Death” value (GCL1 cells; [3]) of the same compound?
The value was 84.1% ± 1.6.

What about the “Cell Death” value (GCL1 cells; [4]) of the same compound?
The value was 84.9% ± 1.6.

And the “Cell Death” value (GCL1 cells; [5])?
The value was 85.3% ± 0.6.

And the “Cell Death” value (GCL1 cells; [6])?
Its value is 85.2% ± 2.0.

And the “Cell Death” value (GCL1 cells; [7])?
The value was 82.5% ± 2.6.

What about the “protection” value ([1]; diosmin 3.3-100 μM by itself, 4 hours) of the same compound?
Its value is “not protective by itself”.

And the “protection” value ([1]; diosmin alone 100 μM)?
The value was “no protection”.

And the “protection” value ([1]; diosmin by itself 33-100 μM)?
Its value is “not effective”.

What does the source list for `COc1ccc([C@@H]2CC(=O)c3c(O)cc(O[C@@H]4O[C@H](CO[C@@H]5O[C@@H](C)[C@H](O)[C@@H](O)[C@H]5O)[C@@H](O)[C@H](O)[C@H]4O)cc3O2)cc1O` [hesperidin, (S)-7-[[6O-(6-Deoxy-α-L-mannopyranosyl)-β-D-glucopyranosyl]oxy]-2,3-dihydro-5-hydroxy-2-(3-hydroxy-4-methoxyphenyl)-4H-1-benzopyran-4-one]?
abnormalities observed for a week [2]: the same results were reported; toxicity ([2]; orally administered to a mouse at 1000 mg/kg (U.S. Pat. No. 5,763,414)): no toxicity; effects on liver function ([2]; tests using mice): no adverse effects on liver function; toxicity or mitogenicity ([2]; tests using mice): little toxicity or mitogenicity

Which “cell death when tested individually” value [1] does the source give for `COc1ccc(-c2coc3cc(O)cc(O)c3c2=O)cc1` [biochanin A, 5,7-dihydroxy-4′-methoxyiso-flavone] here?
The value was “about half of the cells died”.

For `Cc1c(O)cc2c(c1C)O[C@](C)(CCC[C@H](C)CCC[C@H](C)CCCC(C)C)CC2` [gamma-tocopherol, 3,4-dihydro-2,7,8-trimethyl-2-(4,8,12-trimethyltridecyl)-2H-1-benzyopyran-6-ol], which “protection” value ([1]; gamma-tocopherol 0.03-0.3 μg/ml by itself) is on record?
Its value is “not protective by itself”.

With `O=c1c(O)c(-c2ccc(O)c(O)c2)oc2cc(O)cc(O)c12` [Quercetin, 2-(3,4-Dihydroxyphenyl)-3,5,7-trihydroxy-4H-1-benzopyran-4-one] as the compound, how does the “protective activity” value (GCL1 cells; concentrations of 25 μM and above) read?
The value was “protective activity is apparent”.

And the “Cell Death” value (GCL1 cells; [3])?
The value was 68.1% ± 1.7.

What about the “Cell Death” value (GCL1 cells; [4]) of the same compound?
Its value is 57.1% ± 2.4.

What about the “Cell Death” value (GCL1 cells; [5]) of the same compound?
The value was 22.0% ± 2.2.

And the “Cell Death” value (GCL1 cells; [6])?
The value was 0.0% ± 0.9.

And the “Cell Death” value (GCL1 cells; [7])?
The value was 1.0% ± 0.5.

Which protection (GCL1 cells; 11 μM adenosine alone) does the source give for `Nc1ncnc2c1ncn2[C@@H]1O[C@H](CO)[C@@H](O)[C@H]1O` [adenosine, 9-β-D-ribofuranosyl-9H-purin-6-amine] here?
Its protection is 17.9%.

Which “cell death when tested individually” value [1] does the source give for `Cc1c(C)c2c(c(C)c1O)CC[C@@](C)(CCC[C@H](C)CCC[C@H](C)CCCC(C)C)O2` (relative stereo) [alpha-tocopherol, [2R-2R*(4R*,8R*)]-3,4-dihydro-2,5,7,8-tetramethyl-2-(4,8,12-trimethyltridecyl)-2H-1-benzopyran-6-ol] here?
The value was “about half of the cells died”.

For `C[N+](C)(C)CC(O)CC(=O)[O-].O=C(O)C(O)C(O)C(=O)O` (centres unmarked) [carnitine tartate, carnitine tartrate], which Cell Death (GCL1 cells; 10 mM carnitine tartrate alone, 4 hours, control 97.4%) is on record?
Its Cell Death is 59.5%.

With `O=c1cc(-c2ccc(O)c(O)c2)oc2cc(O)cc(O)c12` [Luteolin, 2-(3,4-Dihydroxyphenyl)-5,7-dihydroxy-4H-1-benzopyran-4-one] as the compound, how does the “cytoprotective activity” value (GCL1 cells; concentrations of about 60 μM and above) read?
The value was “exhibited cytoprotective activity”.

And the “Cell Death” value (GCL1 cells; flavonoid 15.6 μM, antimycin A 100 nM, 4 hours)?
The value was 78.0% ± 0.9.

What about the “Cell Death” value (GCL1 cells; flavonoid 31.25 μM, antimycin A 100 nM, 4 hours) of the same compound?
Its value is 74.5% ± 1.2.

What about the “Cell Death” value (GCL1 cells; flavonoid 62.5 μM, antimycin A 100 nM, 4 hours) of the same compound?
Its value is 69.0% ± 2.2.

And the “Cell Death” value (GCL1 cells; flavonoid 125 μM, antimycin A 100 nM, 4 hours)?
Its value is 53.7% ± 5.4.

And the “Cell Death” value (GCL1 cells; flavonoid 250 μM, antimycin A 100 nM, 4 hours)?
The value was 33.4% ± 0.6.

And the “abnormalities observed for a week” value [2]?
Its value is “the same results were reported”.

Reference: patent publication US6528042B1, “Compositions of flavonoids for use as cytoprotectants and methods of making and using them” (Galileo Laboratories, Inc., priority 1999, dated 2003)
